ChEMBL document CHEMBL1201862, “PubChem BioAssay data set” (2004)
One block for each compound: values may come before it. Active and inactive are the calls of the source.

What was measured:
[1] = target: T1, Probable nicotinate-nucleotide adenylyltransferase (Staphylococcus aureus (strain N315), UniProt P65502); type: functional, Staphylococcus aureus subsp. aureus N315;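 for IC50 Mean: confirmatory dose-response retesting of NadD inhibitor hits first found in an ultra-high-throughput screen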
[2] = target: T1, Probable nicotinate-nucleotide adenylyltransferase; type: functional, Staphylococcus aureus subsp. aureus N315; settings: read-out: IC50_Mean
[3] = target: ADP-ribosylation factor GTPase-activating protein 1 (Rattus norvegicus, UniProt Q62848); test: Fluorescence polarization-based biochemical high throughput dose response screening assay to identify inhibitors of ADP-ribosylation factor GTPase activating protein 1 (ARFGAP1).; type: functional
Chain of ADP-ribosylation factor GTPase-activating protein 1 (Q62848 whole entry): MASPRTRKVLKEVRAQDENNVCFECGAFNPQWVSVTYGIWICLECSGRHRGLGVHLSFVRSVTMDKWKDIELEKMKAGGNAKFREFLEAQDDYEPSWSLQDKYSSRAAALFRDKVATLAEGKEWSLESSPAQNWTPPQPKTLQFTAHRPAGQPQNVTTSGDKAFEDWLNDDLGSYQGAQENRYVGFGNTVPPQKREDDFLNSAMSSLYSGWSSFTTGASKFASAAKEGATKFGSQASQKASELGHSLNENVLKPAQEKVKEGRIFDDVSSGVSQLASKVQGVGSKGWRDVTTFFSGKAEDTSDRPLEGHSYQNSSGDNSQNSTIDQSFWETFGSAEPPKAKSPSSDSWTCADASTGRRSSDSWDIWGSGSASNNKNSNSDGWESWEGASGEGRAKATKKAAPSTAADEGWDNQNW

[4] = target: Low molecular weight phosphotyrosine protein phosphatase (Homo sapiens, UniProt P24666); type: functional; settings: read-out: IC50_Mean;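 note: Dose-response confirmation assay measuring inhibition of LMPTP enzyme activity by fluorescence intensity read-out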
Chain of Low molecular weight phosphotyrosine protein phosphatase (P24666 whole entry): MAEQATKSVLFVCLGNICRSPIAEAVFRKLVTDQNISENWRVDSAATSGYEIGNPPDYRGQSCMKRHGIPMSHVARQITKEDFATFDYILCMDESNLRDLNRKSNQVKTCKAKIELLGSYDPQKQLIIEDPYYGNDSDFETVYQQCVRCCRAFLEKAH

[5] = target: Peroxisome proliferator-activated receptor gamma/Nuclear receptor coactivator 1 (Homo sapiens, UniProt P37231); test: (§1) TR-FRET dose response biochemical High Throughput Screening assay for agonists of the steroid receptor coactivator 1 (SRC-1) recruitment by the peroxisome proliferator-activated receptor gamma (PPAR gamma): non-selective agonists. [Related pubchem assays (depositor defined):AID1300, AID1808, AID504735, AID631]; type: protein assay
[6] = target: Peroxisome proliferator-activated receptor gamma/Nuclear receptor coactivator 3 (Homo sapiens, UniProt P37231); test: as §1, with “3 (SRC-3)” for “1 (SRC-1)”, “assays: 1301 (Confirmation screen.), 1048 (Primary screen.)]” for “assays (depositor defined):AID1300, AID1808, AID504735, AID631]”; type: functional
[7] = target: Peroxisome proliferator-activated receptor gamma/Nuclear receptor coactivator 2 (Homo sapiens, UniProt P37231); test: TR-FRET dose response biochemical High Throughput Screening assay for agonists of the steroid receptor coactivator 2 (SRC-2) recruitment by the peroxisome proliferator-activated receptor gamma (PPAR gamma): non-selective agonists. [Related pubchem assays: 1297, 1032 ]; type: functional
[8] = target: Mitogen-activated protein kinase 10 (Homo sapiens, UniProt P53779); test: Dose response biochemical screening assay for inhibitors of c-Jun N-Terminal Kinase 3 (JNK3). [Related pubchem assays: 746 ]
Chain of Mitogen-activated protein kinase 10 (P53779 whole entry): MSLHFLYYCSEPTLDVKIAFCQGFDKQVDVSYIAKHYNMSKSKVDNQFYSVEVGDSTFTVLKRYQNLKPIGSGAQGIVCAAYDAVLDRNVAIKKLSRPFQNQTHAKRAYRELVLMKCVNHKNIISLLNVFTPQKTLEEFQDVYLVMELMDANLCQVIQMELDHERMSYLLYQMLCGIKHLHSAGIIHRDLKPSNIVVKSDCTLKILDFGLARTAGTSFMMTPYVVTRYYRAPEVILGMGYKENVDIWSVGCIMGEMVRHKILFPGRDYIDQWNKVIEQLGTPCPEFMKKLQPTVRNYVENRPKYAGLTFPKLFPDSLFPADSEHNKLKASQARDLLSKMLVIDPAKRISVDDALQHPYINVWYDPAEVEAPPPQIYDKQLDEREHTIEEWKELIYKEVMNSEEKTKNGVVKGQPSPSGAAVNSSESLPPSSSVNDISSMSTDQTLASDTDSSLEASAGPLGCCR

[9] = Luminescence Cell-Based Dose Retest to Confirm Inhibitors of Cancer Stem Cells. [Related pubchem assays (depositor defined):AID2717, AID2721]; type: functional; settings: Homo sapiens
[10] = target: Photoreceptor-specific nuclear receptor (Homo sapiens, UniProt Q9Y5X4); type: functional, cell-based;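 note: CHO-S cells with Gal4-NCOR and VP16-NR2E3 two-hybrid luciferase reporter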
Chain of Photoreceptor-specific nuclear receptor (Q9Y5X4 whole entry, the tested form may be a part): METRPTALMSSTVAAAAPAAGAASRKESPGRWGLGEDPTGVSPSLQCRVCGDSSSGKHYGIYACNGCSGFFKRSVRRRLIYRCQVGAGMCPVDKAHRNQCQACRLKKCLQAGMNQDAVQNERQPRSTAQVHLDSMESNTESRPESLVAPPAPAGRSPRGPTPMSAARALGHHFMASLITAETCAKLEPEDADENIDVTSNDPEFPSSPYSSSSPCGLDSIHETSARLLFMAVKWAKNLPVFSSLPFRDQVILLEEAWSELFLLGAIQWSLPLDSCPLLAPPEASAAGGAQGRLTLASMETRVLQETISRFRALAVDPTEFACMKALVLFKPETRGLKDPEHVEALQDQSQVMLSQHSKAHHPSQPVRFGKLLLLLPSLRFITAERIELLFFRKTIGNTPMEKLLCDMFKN

[11] = viability of uninfected HEp-2 cells – cell-based, HTS, cytotoxicity control for RSV inhibitor project, dose response (AID 2410); type: functional; settings: human respiratory syncytial virus
[12] = test system: CHO-K1; test: (§2) Counterscreen for antagonists of the orexin 1 receptor (OX1R; HCRTR1): Homogeneous time resolved fluorescence (HTRF)-based cell-based dose response assay to identify antagonists of the parental CHO-K1 cell line. [Related pubchem assays (depositor defined):AID434989, AID435008, AID463079, AID485270, AID492963, AID492964, AID492965, AID493232, AID504699, AID504701]; type: functional; settings: Cricetulus griseus
[13] = as §2, with “Fluorescence-based” for “Homogeneous time resolved fluorescence (HTRF)-based”, “cell-based high throughput” for “cell-based”, “CHO” for “CHO-K1”; type: functional
[14] = target: T2, Orexin/Hypocretin receptor type 1 (Homo sapiens, UniProt O43613); test: Homogeneous Time Resolved Fluorescence (HTRF)-based cell-based high throughput dose response assay for antagonists of the orexin 1 receptor (OX1R; HCRTR1). [Related pubchem assays (depositor defined):AID434989, AID435008, AID463079, AID485270, AID492963, AID492964, AID492965, AID493232, AID504717, AID504718]; type: functional
T2 sequence (O43613 whole entry): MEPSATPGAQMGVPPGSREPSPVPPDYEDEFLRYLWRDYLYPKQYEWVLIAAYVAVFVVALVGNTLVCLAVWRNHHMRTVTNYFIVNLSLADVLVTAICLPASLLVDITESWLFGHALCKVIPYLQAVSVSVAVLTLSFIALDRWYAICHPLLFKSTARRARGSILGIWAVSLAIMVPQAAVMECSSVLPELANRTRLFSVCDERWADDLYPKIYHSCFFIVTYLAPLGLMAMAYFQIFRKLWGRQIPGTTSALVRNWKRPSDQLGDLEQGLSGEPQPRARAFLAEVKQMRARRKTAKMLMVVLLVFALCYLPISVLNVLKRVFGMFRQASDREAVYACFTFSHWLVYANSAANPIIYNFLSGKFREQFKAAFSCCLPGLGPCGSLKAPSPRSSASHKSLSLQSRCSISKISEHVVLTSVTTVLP

[15] = target: T2, Orexin/Hypocretin receptor type 1; test: Fluorescence-based cell-based high throughput dose response assay for antagonists of the orexin 1 receptor (OX1R; HCRTR1). [Related pubchem assays (depositor defined):AID434989, AID435008, AID463079, AID485270, AID492963, AID492964, AID492965, AID493232, AID504717, AID504718]; type: functional
[16] = target: T3, Orexin receptor type 2 (Homo sapiens, UniProt O43614); test: Counterscreen assay for antagonists of the orexin 1 receptor (OX1R; HCRTR1): Fluorescence-based cell-based dose response assay for antagonists of the orexin 2 receptor (OX2R; HCRTR2), run by assay provider.; type: functional
T3 sequence (O43614 whole entry): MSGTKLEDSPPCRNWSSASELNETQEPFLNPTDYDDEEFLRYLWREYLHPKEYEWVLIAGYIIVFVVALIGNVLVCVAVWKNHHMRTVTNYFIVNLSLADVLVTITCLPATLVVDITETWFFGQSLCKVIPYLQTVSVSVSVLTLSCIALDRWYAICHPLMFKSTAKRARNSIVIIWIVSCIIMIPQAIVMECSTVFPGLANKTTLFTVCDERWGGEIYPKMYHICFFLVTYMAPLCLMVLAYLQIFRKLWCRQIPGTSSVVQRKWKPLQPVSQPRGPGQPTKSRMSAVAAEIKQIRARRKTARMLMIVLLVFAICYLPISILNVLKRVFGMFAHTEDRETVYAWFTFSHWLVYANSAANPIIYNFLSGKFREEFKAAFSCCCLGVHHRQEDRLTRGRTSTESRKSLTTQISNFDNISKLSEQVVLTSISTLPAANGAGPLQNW

[17] = target: T3, Orexin receptor type 2; test: Counterscreen assay for antagonists of the orexin 1 receptor (OX1R; HCRTR1): Homogeneous Time Resolved Fluorescence (HTRF)-based cell-based dose response assay for antagonists of the orexin 2 receptor (OX2R; HCRTR2), run by assay provider.; type: functional
[18] = test system: INS1; test: INS-1E survival protection against cytokine death – cell-based, luminescence, retest, dose response (AID 449756); type: functional; settings: Rattus norvegicus;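 note: cell death triggered by IL-1 beta plus TNF-alpha plus IFN-gamma mixture; protective hits raise ATP signal compared with cytokine alone wells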
[19] = reduction of Shn3 3'UTR-driven luciferase in osteoblasts – cell-based, Clone20 osteoblasts, firefly luciferase, cherry-picked, dose response (AID 624132); type: functional;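 note: firefly luciferase luminescence from reporter carrying the Shn3 3'UTR in osteoblasts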
[20] = loss of viability in HepG2 cells – cell-based, CellTiter-Glo, cherry-picked, cytotoxicity control for Shn3 inhibitor project, dose response (AID 624134); type: functional
[21] = target: Protein Wnt-3a (Mus musculus, UniProt P27467); test: antagonism of Wnt3a pathway luciferase reporter – Wnt-LIGHT cells, luminescence, selectivity assay for Gli-SUFU antagonist project, dose response (AID 651570); type: functional; settings: read-out: IC50_Mean;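 note: Wnt-LIGHT reporter cells stimulated with conditioned medium from Wnt3a-producing cells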
Chain of Protein Wnt-3a (P27467 whole entry): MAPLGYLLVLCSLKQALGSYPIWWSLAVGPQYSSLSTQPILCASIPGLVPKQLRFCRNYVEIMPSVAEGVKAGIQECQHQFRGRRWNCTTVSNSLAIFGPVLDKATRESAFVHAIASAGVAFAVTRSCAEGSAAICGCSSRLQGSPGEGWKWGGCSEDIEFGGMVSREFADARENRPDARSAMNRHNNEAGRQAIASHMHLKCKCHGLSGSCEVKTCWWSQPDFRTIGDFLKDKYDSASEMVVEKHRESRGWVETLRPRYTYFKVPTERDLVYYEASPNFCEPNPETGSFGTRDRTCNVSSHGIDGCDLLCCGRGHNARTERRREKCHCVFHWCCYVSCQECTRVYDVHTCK

[22] = Trypanosoma cruzi growth suppression in host cells – NIH3T3 host cells, beta-gal luminescence, confirmation (AID 2044); type: functional, cell-based;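 note: intracellular parasites grown in NIH/3T3 mouse fibroblasts as host cells; luminescent beta-galactosidase reporter signal from transgenic T. cruzi replicating inside host cells; inhibitors lower the luminescence signal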
[23] = NIH3T3 cell viability loss – ATP luminescence, mouse fibroblasts, counter-screen, dose response (AID 2010); type: functional, cell-based;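 note: cells exposed to compound for about 90 hours before reading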
[24] = target: Nuclear receptor subfamily 5 group A member 2 (Homo sapiens, UniProt O00482); type: functional, cell-based;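 note: HEK293T cells transfected with LRH-1 and a StAR promoter luciferase reporter; potency for inhibitors that lower LRH-1 driven reporter light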
Chain of Nuclear receptor subfamily 5 group A member 2 (O00482 whole entry): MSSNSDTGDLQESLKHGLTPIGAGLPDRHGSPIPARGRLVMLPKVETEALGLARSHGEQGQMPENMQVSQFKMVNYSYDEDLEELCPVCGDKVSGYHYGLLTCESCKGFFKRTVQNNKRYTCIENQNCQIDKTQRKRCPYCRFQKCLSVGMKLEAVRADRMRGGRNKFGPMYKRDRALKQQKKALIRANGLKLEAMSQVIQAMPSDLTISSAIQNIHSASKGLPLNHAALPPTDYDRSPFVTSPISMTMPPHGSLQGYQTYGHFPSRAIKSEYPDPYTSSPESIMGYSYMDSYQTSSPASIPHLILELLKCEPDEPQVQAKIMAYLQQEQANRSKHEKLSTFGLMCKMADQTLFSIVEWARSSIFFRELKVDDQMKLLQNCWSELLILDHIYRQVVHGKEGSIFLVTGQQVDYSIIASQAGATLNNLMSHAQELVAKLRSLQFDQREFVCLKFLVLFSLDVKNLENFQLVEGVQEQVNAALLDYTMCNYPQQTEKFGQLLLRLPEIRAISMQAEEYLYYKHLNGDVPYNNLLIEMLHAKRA

[25] = target: Steroidogenic factor 1 (Homo sapiens, UniProt Q13285); test: Counterscreen for inverse agonists of the liver receptor homolog-1 (LRH-1; NR5A2): Luminescence-based cell-based high throughput dose response assay to identify inverse agonists of the Steroidogenic Factor 1 Nuclear Receptor (SF1; NR5A1).; type: functional
Chain of Steroidogenic factor 1 (Q13285 whole entry): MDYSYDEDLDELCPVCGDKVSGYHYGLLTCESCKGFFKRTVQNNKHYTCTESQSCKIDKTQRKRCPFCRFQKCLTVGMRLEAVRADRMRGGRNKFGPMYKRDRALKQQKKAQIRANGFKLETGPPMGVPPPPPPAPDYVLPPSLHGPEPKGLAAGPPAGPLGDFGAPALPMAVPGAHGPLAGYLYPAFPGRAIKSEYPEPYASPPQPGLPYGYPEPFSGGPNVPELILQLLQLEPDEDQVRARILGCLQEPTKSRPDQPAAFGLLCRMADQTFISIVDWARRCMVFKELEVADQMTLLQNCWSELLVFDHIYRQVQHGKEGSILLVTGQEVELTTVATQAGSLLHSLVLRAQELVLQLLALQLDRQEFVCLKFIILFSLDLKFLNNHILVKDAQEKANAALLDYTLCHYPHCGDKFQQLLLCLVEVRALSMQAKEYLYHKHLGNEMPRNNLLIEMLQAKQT

[26] = nonselective StAR promoter luciferase inhibitors – cell-based, luminescence, luciferase reporter, counter-screen for LRH-1 inverse agonist project, dose response (AID 651969); type: functional
[27] = target: Cytochrome P450 2C9 (Homo sapiens, UniProt P11712)
[28] = target: Ras and Rab interactor 1/Tyrosine-protein kinase ABL1 (Homo sapiens, UniProt P00519+Q13671); type: functional;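 note: biochemical TR-FRET dose-response test measuring inhibition of binding between Rin1 and Abl proteins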
Chain of Ras and Rab interactor 1/Tyrosine-protein kinase ABL1 (P00519 whole entry, the tested form may be a part): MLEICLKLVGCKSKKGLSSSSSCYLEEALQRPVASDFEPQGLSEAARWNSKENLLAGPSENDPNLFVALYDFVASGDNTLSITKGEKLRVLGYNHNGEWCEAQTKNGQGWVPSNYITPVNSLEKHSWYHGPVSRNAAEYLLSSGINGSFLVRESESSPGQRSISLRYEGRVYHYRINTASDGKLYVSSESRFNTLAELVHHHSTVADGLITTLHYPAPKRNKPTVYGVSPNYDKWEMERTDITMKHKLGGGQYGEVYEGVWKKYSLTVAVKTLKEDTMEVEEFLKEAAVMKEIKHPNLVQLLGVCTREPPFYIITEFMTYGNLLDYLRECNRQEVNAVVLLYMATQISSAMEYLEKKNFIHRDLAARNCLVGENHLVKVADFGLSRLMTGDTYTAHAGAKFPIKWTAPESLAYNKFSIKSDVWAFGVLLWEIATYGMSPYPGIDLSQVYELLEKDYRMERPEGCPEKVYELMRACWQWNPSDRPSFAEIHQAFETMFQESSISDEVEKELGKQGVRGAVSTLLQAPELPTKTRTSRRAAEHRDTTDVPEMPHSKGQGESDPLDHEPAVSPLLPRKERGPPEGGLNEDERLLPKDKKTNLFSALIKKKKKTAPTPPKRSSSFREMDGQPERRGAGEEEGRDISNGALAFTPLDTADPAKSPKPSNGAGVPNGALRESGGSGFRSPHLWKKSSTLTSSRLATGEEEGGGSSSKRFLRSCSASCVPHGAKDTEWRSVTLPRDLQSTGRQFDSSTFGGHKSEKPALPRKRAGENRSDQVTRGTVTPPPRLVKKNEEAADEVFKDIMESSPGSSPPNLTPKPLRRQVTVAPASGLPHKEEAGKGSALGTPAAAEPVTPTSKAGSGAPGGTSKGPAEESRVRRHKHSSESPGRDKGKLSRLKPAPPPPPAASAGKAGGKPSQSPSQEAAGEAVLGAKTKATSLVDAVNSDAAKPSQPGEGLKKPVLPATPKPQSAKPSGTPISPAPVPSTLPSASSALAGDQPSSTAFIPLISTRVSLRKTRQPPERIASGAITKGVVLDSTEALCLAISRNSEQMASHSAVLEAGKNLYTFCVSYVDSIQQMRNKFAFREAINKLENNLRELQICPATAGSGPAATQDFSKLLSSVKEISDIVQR
Chain of Ras and Rab interactor 1/Tyrosine-protein kinase ABL1 (Q13671 whole entry, the tested form may be a part): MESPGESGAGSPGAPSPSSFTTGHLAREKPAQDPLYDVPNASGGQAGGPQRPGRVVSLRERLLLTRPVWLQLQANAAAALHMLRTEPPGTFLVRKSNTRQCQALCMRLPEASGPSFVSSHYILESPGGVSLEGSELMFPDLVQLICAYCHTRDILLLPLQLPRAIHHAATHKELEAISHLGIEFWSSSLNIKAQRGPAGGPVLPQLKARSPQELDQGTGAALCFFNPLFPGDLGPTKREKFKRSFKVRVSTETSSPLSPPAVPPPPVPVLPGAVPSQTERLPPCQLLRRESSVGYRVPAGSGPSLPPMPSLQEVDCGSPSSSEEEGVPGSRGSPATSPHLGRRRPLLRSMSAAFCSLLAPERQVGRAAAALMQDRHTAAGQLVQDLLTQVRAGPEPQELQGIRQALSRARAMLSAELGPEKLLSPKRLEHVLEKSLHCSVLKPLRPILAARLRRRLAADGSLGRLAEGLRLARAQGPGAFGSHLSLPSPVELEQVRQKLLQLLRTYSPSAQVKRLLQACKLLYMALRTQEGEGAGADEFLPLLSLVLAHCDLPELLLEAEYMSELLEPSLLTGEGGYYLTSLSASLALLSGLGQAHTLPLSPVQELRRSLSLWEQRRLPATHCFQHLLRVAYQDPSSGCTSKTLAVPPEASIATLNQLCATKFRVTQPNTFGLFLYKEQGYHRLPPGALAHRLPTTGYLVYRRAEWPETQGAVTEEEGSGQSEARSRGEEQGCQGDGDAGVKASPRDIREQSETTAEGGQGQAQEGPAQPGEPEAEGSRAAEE

[29] = target: Hepatocyte nuclear factor 4-alpha (Homo sapiens, UniProt P41235); type: functional, cell-based;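 note: biochemical luminescence-based dose-response counterscreen measuring inhibition of HNF4 dimerization, run alongside a screen for blockers of ABHD5–perilipin-5 interaction; split luciferase complementation of HNF4 fusion proteins in cell lysate measuring dimerization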
[30] = target: Mitochondrial peptide methionine sulfoxide reductase (Bos taurus, UniProt P54149); type: functional;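 note: absorbance read-out, biochemical high-throughput dose-response screen for MsrA inhibitors, confirmatory; recombinant bovine MsrA coupled to E. coli TrxB with NADPH and selenocystamine; potency is for inhibitors of MsrA activity on DMSO substrate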
Chain of Mitochondrial peptide methionine sulfoxide reductase (P54149 whole entry): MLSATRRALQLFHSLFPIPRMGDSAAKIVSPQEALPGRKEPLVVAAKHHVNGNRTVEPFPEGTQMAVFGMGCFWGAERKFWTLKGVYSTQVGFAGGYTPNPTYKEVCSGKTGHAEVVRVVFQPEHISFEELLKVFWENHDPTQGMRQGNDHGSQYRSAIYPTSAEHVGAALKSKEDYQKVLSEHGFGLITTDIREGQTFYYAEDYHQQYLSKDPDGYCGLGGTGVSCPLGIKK

[31] = target: T4, Heat shock factor protein 1 (Mus musculus, UniProt P38532); test: decrease of HSF1-responsive luciferase luminescence – cell-based, NIH3T3, dose retest, confirmation (AID 2382); type: functional;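 note: NIH3T3 fibroblasts with HSF1-driven luciferase reporter stressed by proteasome inhibitor MG132; luminescence from HSF1-driven luciferase expression after 8 hours of MG132 stress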
T4 sequence (P38532 whole entry): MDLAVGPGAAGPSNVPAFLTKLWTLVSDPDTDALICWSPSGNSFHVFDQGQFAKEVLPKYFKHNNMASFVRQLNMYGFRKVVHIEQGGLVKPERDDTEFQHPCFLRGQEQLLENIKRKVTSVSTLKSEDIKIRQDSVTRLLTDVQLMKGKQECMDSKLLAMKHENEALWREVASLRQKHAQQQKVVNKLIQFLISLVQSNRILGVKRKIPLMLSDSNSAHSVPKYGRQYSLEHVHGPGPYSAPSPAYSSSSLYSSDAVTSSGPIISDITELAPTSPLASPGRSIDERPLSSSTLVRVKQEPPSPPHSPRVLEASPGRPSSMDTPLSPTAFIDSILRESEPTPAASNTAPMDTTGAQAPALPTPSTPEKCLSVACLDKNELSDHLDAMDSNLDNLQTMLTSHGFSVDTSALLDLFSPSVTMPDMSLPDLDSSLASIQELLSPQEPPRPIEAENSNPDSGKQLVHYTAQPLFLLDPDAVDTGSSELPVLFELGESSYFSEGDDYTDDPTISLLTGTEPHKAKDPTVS

IC50 [1]: 9.28 µM (active)
IC50 [2]: 42.5 µM (active)
Structure (SMILES): COc1ccc(OC)c(/C=C/C(=O)OCC(=O)Nc2nnc(-c3ccccc3)o2)c1

IC50 [3]: 57.4 µM (inactive)
Structure (SMILES): NC(=O)c1ccc(NC(=O)COC(=O)/C=C/c2cn(-c3ccccc3)nc2-c2cccnc2)cc1

IC50 [4]: 80 µM (inactive)
Structure (SMILES): Cc1csc2nc(O)c(C(=O)NCc3ccc4c(c3)OCO4)c(=O)n12

Structure (SMILES): Cc1ccnc(NC(=O)CSc2cc(=O)n(C)c3ccccc23)c1
EC50 [5]: > 79.4 µM (inactive)
EC50 [6]: > 79.4 µM (not active)
EC50 [7]: > 79.4 µM (not active)
IC50 [8]: > 93.1 µM (not active)
AC50 [9]: 1.03 µM (active)
IC50 [10]: 0.664 µM (active)

Structure (SMILES): CNC(=O)NC(=O)C(C)OC(=O)c1c2c(nc3ccccc13)/C(=C/c1cccs1)CC2 (stereo not given)
CC50 [11]: > 50 µM (active)
IC50 [12]: > 66.2 µM (inactive)
AC50 [9]: 2.41 µM (active)
IC50 [13]: > 49.7 µM (inactive)
IC50 [14]: 4.12 µM (active)
IC50 [15]: 5.01 µM (active)
IC50 [16]: 8.7 µM (active)
IC50 [17]: > 50 µM (inactive)

Structure (SMILES): COc1ccc(NS(=O)(=O)c2ccc(N3CCOCC3)c(N)c2)cc1
AC50 [18]: 2.94 µM (active)
AC50 [19]: 1.08 µM (active)
AC50 [20]: 3.99 µM (active)
IC50 [21]: 1.16 µM (active)

IC50 [21]: 3.96 µM (active)
Structure (SMILES): CCOC(=O)c1sc2nc(CC(=O)OC)nc(NCc3ccc(Cl)cc3)c2c1C

Structure (SMILES): COc1ccc(/C=C/c2nc(N)nc(-c3ccccc3O)n2)cc1OC
CC50 [11]: > 50 µM (active)
EC50 [22]: 2.09 µM (active)
EC50 [23]: > 60 µM (inconclusive)
IC50 [12]: > 66.3 µM (inactive)
IC50 [13]: > 49.8 µM (inactive)
IC50 [14]: 2.69 µM (active)
IC50 [15]: 3.97 µM (active)
IC50 [16]: 26.9 µM (inactive)
IC50 [17]: > 50 µM (inactive)

Structure (SMILES): COc1ccc(NC(=O)COC(=O)c2c(-c3ccccc3)noc2C)cc1
IC50 [24]: 5.15 µM (active)
IC50 [25]: 1.43 µM (active)
IC50 [26]: 35.9 µM (inactive)
AC50 [27]: 20 µM (inconclusive)

Structure (SMILES): COc1ccc(NC(=O)CSc2nc(O)c3c(C)cc(C)nc3n2)cc1
IC50 [24]: 1.37 µM (active)
IC50 [25]: 1.3 µM (active)
IC50 [26]: 23.7 µM (inactive)

Structure (SMILES): O=C(Nc1ccccc1)[C@@H]1CC=C[C@@H]2CCN(Cc3ccc(Cl)c(Cl)c3)C(=O)[C@@H]21
IC50 [12]: > 66.2 µM (inactive)
IC50 [13]: > 49.7 µM (inactive)
IC50 [14]: 0.484 µM (active)
IC50 [15]: 4.28 µM (active)
IC50 [16]: > 88.8 µM (inactive)
IC50 [17]: > 50 µM (inactive)

IC50 [3]: 69.8 µM (inactive)
Structure (SMILES): CCOc1ccc2oc(C(=O)OCC(=O)N3CCCC(C)C3)c(C)c2c1 (stereo not given)

IC50 [28]: 17.5 µM (inactive)
Structure (SMILES): CN(Cc1cnccn1)C(=O)C1CCC(=O)N(CCc2ccccc2)C1 (stereo not given)

IC50 [28]: 17.3 µM (inactive)
Structure (SMILES): CCOC(=O)CCCCCC(=O)Nc1ccc2c(c1)C(=O)N([C@@H](C)CO)C[C@@H](C)[C@H](CN(C)C(=O)Nc1ccccc1)OCCCC[C@H](C)O2

IC50 [29]: 15.7 µM (inactive)
Structure (SMILES): COc1ccc(NC(=O)C(c2ccc(OC)cc2)n2c(=O)c(-c3ccco3)nc3ccccc32)cc1 (stereo not given)

Structure (SMILES): O=C(N/N=C/c1ccc(Br)s1)c1ccc([N+](=O)[O-])cc1
EC50 [22]: 3.76 µM (active)
EC50 [23]: 8.96 µM (active)
IC50 [4]: 9.73 µM (active)

IC50 [30]: 118 µM (inactive)
Structure (SMILES): O=C(O)CC1SC(N/N=C/C=C/c2ccccc2)=NC1=O (stereo not given)

EC50 [31]: 35.5 µM (active)
IC50 [30]: 51.7 µM (inactive)
Structure (SMILES): CC(/C=C/c1ccc2c(c1)OCO2)=N/NC(=O)c1ccncc1
